Assay results reported in patent publication US20260250318A1, “COMPOSITIONS AND METHODS FOR CROSSING THE BLOOD BRAIN BARRIER” (VOYAGER THERAPEUTICS, INC., priority 2022, published 2026).

How the values were obtained:
Details in all cases: synthetic library passage 3, intravenous, relative to wild-type AAV9
[1] = system: brain; assay: NGS fold enrichment of synthetic library (passage 3) in C57Bl/6 mice, first cross-species screen; assay type: in vivo
In short: (§1)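 Fold enrichment versus wild-type AAV9 was derived by NGS of RT-PCR-amplified RNA from nervous tissue, collected e.g. 28 days after IV dosing […]. The library (passage 3) was given to two NHPs aged 2-4 years and to 6-8-week BALB/c and C57Bl/6 mice (n=3 each).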

[2] = system: brain; assay: NGS fold enrichment of synthetic library (passage 3) in BALB/c mice, first cross-species screen; assay type: in vivo
In short: as §1

[3] = system: brain, spinal cord, and DRG of the NHPs; assay: NGS fold enrichment of synthetic library (passage 3) in NHPs, first cross-species screen; assay type: in vivo, cynomolgus macaques (Macaca fascicularis)
In short: as §1

[4] = RNA from brain of C57Bl/6 mice, NGS
[5] = RNA from brain of BALB/c mice, NGS
[6] = RNA from spinal cord of NHPs, NGS

Row | Sequence | Fold enrichment over AAV9 in the brain of Mice (C57Bl/6) ([1]; RNA NGS, brain of C57Bl/6 mice) | Fold enrichment over AAV9 in the brain of Mice (BALB/c) ([2]; RNA NGS, brain of BALB/c mice) | Fold enrichment over AAV9 in the brain of NHPs ([3]; RNA NGS, brain of NHPs) | Fold enrichment over AAV9 in the spinal cord of NHPs ([3]; RNA NGS, spinal cord of NHPs) | Fold enrichment over AAV9 in the brain of Mice (C57Bl/6) [1, 4] | Fold enrichment over AAV9 in the brain of Mice (BALB/c) [2, 5] | Fold enrichment over AAV9 in the brain of NHPs ([3]; RNA from brain of NHPs, NGS) | Fold enrichment over AAV9 in the spinal cord of NHPs [3, 6]
1 | GSGQDRNIVQNQQT | 0.454 fold | 0.632 fold | 2.112 fold | 0.229 fold |  |  |  | 
2 | GSGQDVTKTGNQQT |  |  |  |  | 0.531 fold | 0.035 fold | 1.173 fold | 4.523 fold
3 | GSGQEHRSLANQQT | 0.507 fold | 0.344 fold | 1.046 fold | 0.000 fold |  |  |  | 
4 | GSGQFTNAGMNQQT | 0.565 fold | 0.418 fold | 2.969 fold | 0.936 fold |  |  |  | 
5 | GSGQGIHSSVNQQT | 0.632 fold | 0.634 fold | 1.981 fold | 4.873 fold |  |  |  | 
6 | GSGQGPQERGNQQT | 0.846 fold | 0.313 fold | 1.702 fold | 1.269 fold |  |  |  | 
7 | GSGQHAAPGHNQQT |  |  |  |  | 0.600 fold | 0.199 fold | 1.195 fold | 5.999 fold
8 | GSGQHLPLLGNQQT |  |  |  |  | 0.519 fold | 0.347 fold | 1.175 fold | 1.739 fold
9 | GSGQHSNQHVNQQT |  |  |  |  | 0.955 fold | 0.558 fold | 1.192 fold | 1.453 fold
10 | GSGQHSPHALNQQT | 0.885 fold | 0.573 fold | 1.064 fold | 1.412 fold |  |  |  | 
11 | GSGQHVSVANNQQT | 0.974 fold | 0.577 fold | 1.029 fold | 5.734 fold |  |  |  | 
12 | GSGQIKGKMDNQQT | 1.065 fold | 1.012 fold | 1.654 fold | 2.601 fold |  |  |  | 
13 | GSGQILHSVPNQQT | 0.398 fold | 0.240 fold | 1.752 fold | 1.316 fold |  |  |  | 
14 | GSGQIRESMGNQQT |  |  |  |  | 0.833 fold | 0.523 fold | 1.270 fold | 1.676 fold
15 | GSGQIRHSDQNQQT | 1.170 fold | 0.320 fold | 2.600 fold | 12.884 fold |  |  |  | 
16 | GSGQIRQLVDNQQT | 0.314 fold | 0.272 fold | 1.657 fold | 5.529 fold |  |  |  | 

Row | Sequence | Fold enrichment over AAV9 in the brain of Mice (C57Bl/6) ([1]; RNA NGS, brain of C57Bl/6 mice) | Fold enrichment over AAV9 in the brain of Mice (BALB/c) ([2]; RNA NGS, brain of BALB/c mice) | Fold enrichment over AAV9 in the brain of NHPs ([3]; RNA NGS, brain of NHPs) | Fold enrichment over AAV9 in the spinal cord of NHPs ([3]; RNA NGS, spinal cord of NHPs) | Fold enrichment over AAV9 in the brain of Mice (C57Bl/6) [1, 4] | Fold enrichment over AAV9 in the brain of Mice (BALB/c) [2, 5] | Fold enrichment over AAV9 in the brain of NHPs ([3]; RNA from brain of NHPs, NGS) | Fold enrichment over AAV9 in the spinal cord of NHPs [3, 6]
17 | GSGQIVSTQTNQQT | 0.453 fold | 0.512 fold | 1.456 fold | 1.103 fold |  |  |  | 
18 | GSGQKMWKLDNQQT |  |  |  |  | 0.990 fold | 1.418 fold | 1.341 fold | 0.000 fold
19 | GSGQKQERAVSKQT |  |  |  |  | 1.174 fold | 0.732 fold | 1.277 fold | 0.000 fold
20 | GSGQLGLSVTNQQT |  |  |  |  | 1.395 fold | 0.376 fold | 1.364 fold | 6.906 fold
21 | GSGQLIASVVNQQT | 0.197 fold | 0.359 fold | 1.005 fold | 0.086 fold |  |  |  | 
22 | GSGQLPQSGLNQQT |  |  |  |  | 0.641 fold | 0.318 fold | 1.218 fold | 1.504 fold
23 | GSGQLPRQMTNQQT |  |  |  |  | 0.400 fold | 0.562 fold | 1.376 fold | 3.550 fold
24 | GSGQLRSLSTNQQT | 1.310 fold | 0.382 fold | 1.622 fold | 6.855 fold |  |  |  | 
25 | GSGQLSGIGGNQQT | 0.993 fold | 0.626 fold | 3.266 fold | 0.287 fold |  |  |  | 
26 | GSGQLSGTPQNQQT |  |  |  |  | 1.025 fold | 0.643 fold | 1.185 fold | 1.382 fold
27 | GSGQLSHQSVNQQT | 0.720 fold | 0.695 fold | 1.898 fold | 4.032 fold |  |  |  | 
28 | GSGQLSVPYDNQQT | 0.622 fold | 0.111 fold | 1.521 fold | 0.000 fold |  |  |  | 
29 | GSGQLVLTLQNQQT |  |  |  |  | 0.336 fold | 0.336 fold | 1.143 fold | 0.000 fold
30 | GSGQLVSGLYNQQT |  |  |  |  | 0.842 fold | 0.733 fold | 1.325 fold | 0.000 fold
31 | GSGQLVTSGPNQQT | 0.964 fold | 0.433 fold | 1.669 fold | 5.271 fold |  |  |  | 
